Data published in patent US7378234B2, “Method for isolating hepatitis C virus peptides” (Intercell AG, priority 2002, dated 2008).
Entries after “also recorded” stand apart in the source; their conditions may differ.

Assays:
[1] = tested on: HLA-DRB1*0401 transgenic mice; test: Immunization of HLA-DRB1*0401 transgenic mice (peptide + CpI), splenocyte IFN-gamma ELISpot; assay type: in vivo, mouse; settings: for immunogenicity in HLA-DRB1*0401 transgenic mice (in words): Example II, IFN-gamma ELISpot of splenocytes; for Immunogenicity, peptide-specific IFN-gamma-producing cells, DRB1*0401: HLA-DRB1*0401 transgenic mice, splenocytes
Summary of the method: (§1)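 Groups of three female 8-week-old transgenic mice were given 100 μg peptide plus 30 μg CpI oligodinucleotide subcutaneously in the flank. Splenocytes (1×10^6–3×10^5/well) were restimulated overnight at 37 °C with the immunizing peptide, control peptides or medium, and IFN-gamma spots counted by ELISpot; + = <100, ++ = >100 peptide-specific cells per million splenocytes.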

[2] = tested on: HLA-A*0201 transgenic mice; test: Immunization of HLA-A*0201 transgenic mice (peptide + CpI), splenocyte IFN-gamma ELISpot; assay type: in vivo, mouse; settings: for immunogenicity in HLA-A*0201 transgenic mice (in words): Example II, IFN-gamma ELISpot of splenocytes; for Immunogenicity, peptide-specific IFN-gamma-producing cells, A*0201: HLA-A*0201 transgenic mice, splenocytes
Summary of the method: as §1

[3] = tested on: HLA-B*0702 transgenic mice; test: Vaccination of HLA-B*0702 transgenic mice (peptide + IC31), IFN-gamma ELISpot with spleen cells and CD8+ fraction; assay type: in vivo, mouse; settings: for Immunogenicity, peptide-specific IFN-gamma-producing cells, B*0702: HLA-B*0702 transgenic mice, splenocytes; for specific INF-γ producing T cells / HLA-B*0702 epitope in HLA-B*0702 transgenic mice (in words): peptide + IC31, whole spleen cells and CD8+ fraction
Summary of the method: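 Transgenic mice (groups of 5, male, 8–14 weeks) vaccinated s.c. in hind footpads with 100 μg peptide + IC31; 6 days later pooled splenocytes or MACS-purified CD8+ (A2, B7) or CD4+ (DR4) fractions restimulated overnight with peptide. IFN-gamma spots counted by ELISpot, 1×10^6–3×10^5 cells/well.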

[4] = tested on: HLA-DRB1*0401 transgenic mice; test: Vaccination of HLA-DRB1*0401 transgenic mice (peptide + IC31), IFN-gamma ELISpot with spleen cells and CD4+ fraction; assay type: in vivo, mouse; settings: peptide + IC31, whole spleen cells and CD4+ fraction
Protocol: (§2) Mouse splenocyte ELIspot assay for single cell IFN-gamma release ELISpot plates (MAHA S4510, Millipore, Germany) were rinsed with PBS (200 μl/well), coated with anti-mouse IFN-gamma mAb (clone R46A2; 100 μl/well of 5 μg/ml in 0.1 M NaHCO3, pH 9.2-9.5) and incubated overnight at 4° C. Plates were washed four times with PBS/0.1% Tween 20 and incubated with PBS/1% BSA (200 μl/well) at room temperature for 2 h to block nonspecific binding. Spleen cells from vaccinated mice were prepared and plated at 1×10^6-3×10^5 cells/well and incubated overnight at 37° C./5% CO2 either in the presence of the immunizing antigen (peptide), control peptides or with medium alone. Subsequently, plates were washed four times and incubated with biotinylated anti-mouse IFN-gamma mAb (clone AN18.17.24, 100 μl/well of 2 μg/ml in PBS/1% BSA) for 2 h at 37° C. After washing, streptavidin-peroxidase (Roche Diagnostics, Vienna, Austria) was added ( 1/5000 in PBS, 100 μl/well) and plates were incubated at room temperature for 2 additional hours. Subsequently, substrate was added to the washed plates (100 μl/well of a mixture of 10 ml 100 mM Tris pH 7.5 supplemented with 200 μl of 40 mg/ml DAB stock containing 50 μl of 80 mg/ml NiCl2 stock and 5 μl of 30% H2O2). The reaction was stopped after 20-30 minutes by washing the plates with tap water. Dried plates were evaluated with an ELISpot reader (BIOREADER 2000, BioSys, Karben, Germany).
(§3) Groups of 5 mice (HLA-A*0201-, HLA-DRB1*0401- and HLA-B*0702 transgenic mice, male, 8-14 weeks of age) were injected subcutaneous into the hind footpads with 100 μg of peptide +IC31 per mouse (50 μg per footpad). (PCT/EP01/12041, WO 02/32451 A1 and PCT/EP01/06433, WO 01/93905 A1; IC31 is a combination of the immunizer disclosed in WO 01/93905 and WO 02/32451).
(§4) 6 days after vaccination single cell suspension of pooled spleens were prepared and additionally pure fractions of CD8+ in the case of A2 and B7 tg mice (CD8+ fraction for B7 mice containing 97% of CD8 and 1.5% of CD4 cells and for A2 tg mice 83% of CD8 and 8% of CD4 cells) and CD4+ for DR4tg mice (CD4+ fraction for DR4tg mice containing 98% of CD4 cells and 0.2% of CD8 cells) were separated from the spleen cell suspension using MACS separating kit (Miltenyi, Germany).

[5] = tested on: HLA-A*0201 transgenic mice; test: Vaccination of HLA-A*0201 transgenic mice (peptide + IC31), IFN-gamma ELISpot with spleen cells and CD8+ fraction; assay type: in vivo, mouse; settings: peptide + IC31, whole spleen cells and CD8+ fraction
Protocol: as §2, §3, §4

HLA class II = HLA class II coverage of hotspots and epitopes, compiled from the Examples and Tables of this specification (epitope capture, HLA-transgenic animals, in vitro stimulation of human mononuclear cells); settings: source data: Examples and Tables within this specification
HLA-DRB1*0101 = HLA-DRB1*0101 (Homo sapiens, UniProt P01903+P01911, A100R/D57E/F55L/F60I/F76Y/I96L/L162R/M171V/P40L/Q125E/R42F/V115G/Y59C); test: Epitope capture / peptide binding, SDS-stability assay, soluble DRB1*0101; settings: soluble HLA class II, individual peptide confirmed (Table 2)
HLA-DRB1*0401 = HLA-DRB1*0401 (Homo sapiens, UniProt P01903+P01911, A100K/A169T/F76Y/I96L/K127E/L162R/M171V/N62H/P40V/Q125Y/R42H/S133A/S149N/S66Y/V115G/V209L/W38E); test: Epitope capture / peptide binding, SDS-stability assay, soluble DRB1*0401; settings: soluble HLA class II, individual peptide confirmed (Table 2)
HLA-DRB1*0404 = HLA-DRB1*0404 (Homo sapiens, UniProt P01903+P01911, A100R/A169T/F76Y/I96L/K127E/L162R/M171V/N62H/P40V/Q125Y/R42H/S133A/S149N/S66Y/V209L/W38E); test: Epitope capture / peptide binding, SDS-stability assay, soluble DRB1*0404; settings: soluble HLA class II, individual peptide confirmed (Table 2)
[6] = tested on: PBMC from HCV RNA-negativ therapy responders or subjects spontaneously recovered; test: IFN-gamma ELIspot with human PBMC from HCV therapy responders or spontaneously recovered subjects; settings: directly ex vivo, donor H04; >8 significant
HLA-B*0702 = HLA-B*0702 (Homo sapiens, UniProt P01889); test: Competition-type peptide binding assay, soluble HLA-B*0702, FITC-labelled reference peptide; settings: for HLA-B*0702 minimal epitope (in words): short peptides from Ipep 1587 with HLA-B*0702 binding motifs
Protocol: These were tested in a competition-type peptide binding assay using soluble HLA-B*0702 and the FITC-labelled reference peptide […] (SEQ ID NO:1033), which is a known HLA-B*0702 epitope derived from EBV (Stuber et al., 1995). […] Thus it is likely to present the minimal HLA-B*0702 epitope contained in Ipep 1587.

Row | Sequence | immunogenicity in HLA-DRB1*0401 transgenic mice (in words) [1] | Immunogenicity, peptide-specific IFN-gamma-producing cells, DRB1*0401 [1] | immunogenicity in HLA-A*0201 transgenic mice (in words) [2] | Immunogenicity, peptide-specific IFN-gamma-producing cells, A*0201 [2] | Immunogenicity, peptide-specific IFN-gamma-producing cells, B*0702 [3] | specific INF-γ producing T cells / HLA-B*0702 epitope in HLA-B*0702 transgenic mice (in words) [3] | specific INF-γ producing T cells / HLA-DRB1*0401 epitope in HLA-DRB1*0401 transgenic mice (in words) [4] | specific INF-γ producing T cells / HLA-A*0201 epitope in HLA-A*0201 transgenic mice (in words) [5] | HLA-class II coverage (HLA class II) | Binding to DRB1 *0101 (HLA-DRB1*0101) | further results
1 | FWAKHMWNFISGIQYLAGLSTLPGNPAIASLMAF [Peptide 1565] | immunogenic | ++ (strongly immunogenic (++, more than 100 peptide-specific cells among a million splenocytes)) | immunogenic | ++ (strongly immunogenic (++, more than 100 peptide-specific cells among a million splenocytes)) | + (immunogenic (+, less than 100 peptide-specific cells among a million splenocytes)) | HLA-B*0702 epitopes with T-cell activating capacity | confirmed to contain human HLA-DRB1*0401 epitopes | confirmed to contain human HLA-A*0201 epitopes | – | – | –
2 | VDYPYRLWHYPCTVNFTIFKVRMYVGGVEHRL [Peptide 1650] | immunogenicity | ++ (strongly immunogenic (++, more than 100 peptide-specific cells among a million splenocytes)) | immunogenicity | ++ (strongly immunogenic (++, more than 100 peptide-specific cells among a million splenocytes)) | + (immunogenic (+, less than 100 peptide-specific cells among a million splenocytes)) | HLA-B*0702 epitopes with T-cell activating capacity | confirmed to contain human HLA-DRB1*0401 epitopes | confirmed to contain human HLA-A*0201 epitopes | DR1,4,7,11 | – | –
3 | VVCCSMSYTWTGALITPC [Peptide 1604] | immunogenic; also recorded: immunogenicity | ++ (strongly immunogenic (++, more than 100 peptide-specific cells among a million splenocytes)) | immunogenicity | ++ (strongly immunogenic (++, more than 100 peptide-specific cells among a million splenocytes)) | ++ (strongly immunogenic (++, more than 100 peptide-specific cells among a million splenocytes)) | HLA-B*0702 epitopes with T-cell activating capacity | – | – | DR1,4,7,11 | * (weak binding) | specific INF-γ producing T cells / HLA-B*0702 epitope in HLA-B*0702 transgenic mice (in words) ([3]; listed as Ipep1604): high numbers of specific INF-γ producing T cells; also recorded: class I epitopes; specific INF-γ producing T cells / HLA-DRB1*0401 epitope in HLA-DRB1*0401 transgenic mice (in words) ([4]; listed as Ipep1604): high numbers of specific INF-γ producing T cells; also recorded: class II epitope; specific INF-γ producing T cells / HLA-A*0201 epitope in HLA-A*0201 transgenic mice (in words) ([5]; listed as Ipep1604): high numbers of specific INF-γ producing T cells; also recorded: class I epitopes
4 | VVCCSMSYSWTGALITPC [Peptide 1605] | immunogenicity | + (immunogenic (+, less than 100 peptide-specific cells among a million splenocytes)) | immunogenicity | + (immunogenic (+, less than 100 peptide-specific cells among a million splenocytes)) | + (immunogenic (+, less than 100 peptide-specific cells among a million splenocytes)) | HLA-B*0702 epitopes with T-cell activating capacity | confirmed to contain human HLA-DRB1*0401 epitopes | confirmed to contain human HLA-A*0201 epitopes | – | nb (no binding) | Binding to DRB1 *0401 (HLA-DRB1*0401): nb (no binding); Binding to DRB1 *0404 (HLA-DRB1*0404): * (weak binding); specific INF-γ producing T cells / HLA-B*0702 epitope in HLA-B*0702 transgenic mice (in words) ([3]; listed as Ipep1605): weaker responses; specific INF-γ producing T cells / HLA-DRB1*0401 epitope in HLA-DRB1*0401 transgenic mice (in words) ([4]; listed as Ipep1605): weaker responses; specific INF-γ producing T cells / HLA-A*0201 epitope in HLA-A*0201 transgenic mice (in words) ([5]; listed as Ipep1605): weaker responses; peptide-specific IFN-gamma secreting T-cells, donor H04 [6]: 25 T-cells/10^6 PBMC
5 | SPGALVVGVI [Peptide 1838] | – | – | – | – | – | – | – | – | – | – | competition of FITC-labelled reference peptide binding to soluble HLA-B*0702 (HLA-B*0702; 80-fold molar excess, 48 h at 37° C., reference peptide LPCVLWPVL): ~30%; HLA-B*0702 minimal epitope (in words) (HLA-B*0702): minimal HLA-B*0702 epitopes; HLA-B*0702 minimal epitope (in words) (HLA-B*0702; listed as Ipep 1838): HLA-B*0702 minimal epitope
